Data: patent publication US9757358B2 (priority 2010, dated 2017)

Assays:
sigma 2 (σ-2) site = sigma 2 (σ-2) site (Homo sapiens, UniProt Q5BJF2); conditions: cited from earlier work
opioid analgesia = conditions: Chichenkov et al. 1985; cited from earlier work
morphine dependence = conditions: cited from earlier work
[1] = tested on: post-operative pain in rats (thermal hyperalgesia); experiment: Thermal hyperalgesia (Ugo Basile plantar test) after plantar incision, post-operative pain in rats; format: in vivo, rat; conditions: given 3.5 h after surgery
[2] = tested on: post-operative pain in rats (mechanical allodynia); conditions: rat, in vivo

Chain of sigma 2 (σ-2) site (Q5BJF2 whole entry): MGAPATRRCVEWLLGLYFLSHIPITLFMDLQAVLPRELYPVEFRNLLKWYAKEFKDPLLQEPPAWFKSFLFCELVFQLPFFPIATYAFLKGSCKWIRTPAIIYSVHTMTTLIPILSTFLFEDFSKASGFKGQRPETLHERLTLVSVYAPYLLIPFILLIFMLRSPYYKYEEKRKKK

SKF 10047
affinity for the sigma 2 site (sigma 2 (σ-2) site): micromolar affinity

O=C(CCCN1CCC(O)(c2ccc(Cl)cc2)CC1)c1ccc(F)cc1 [Haloperidol, haloperidol]
effect on activity of opioids and opiates (morphine, DADL, bremazocine) (opioid analgesia): potentiates the activity of different opioids and opiates

dehydroepiandrosterone sulfate [DHEA]
effect on development of morphine dependence (morphine dependence; Noda et al. 2001): some capacity to attenuate the development of morphine dependence

Cc1cc(OCCN2CCOCC2)nn1-c1ccc2ccccc2c1 [compound 63, 4-{2-[5-Methyl-1-(naphthalen-2-yl)-1H-pyrazol-3-yloxy]ethyl}morpholine]
effect on tramadol analgesia ([1]; compound 63 5, 10, 20, 40 mg/kg + tramadol 1.25 mg/kg): enhances tramadol analgesia
effect on morphine analgesia ([1]; compound 63 10, 20, 40, 80 mg/kg + morphine 0.625 mg/kg): enhances morphine analgesia
effect on buprenorphine analgesia [2]: enhances buprenorphine analgesia
effect on morphine analgesia [2]: enhances morphine analgesia
effect on oxycodone analgesia [2]: enhances oxycodone analgesia
effect on tapentadol analgesia [2]: enhances tapentadol analgesia
effect on tramadol analgesia [2]: enhances tramadol analgesia

COc1ccc(CCN2CCN(CCCc3ccccc3)CC2)cc1OC [SA4503]
effect on addiction to morphine (morphine dependence; morphine-induced place preference, Nomura et al. 1999): modulatory effect on addiction to morphine
